Laboratory results from patent publication US20170348330A1, “ANTIVIRAL COMPOUND AND ANALOGUES THEREOF FOR TREATMENT OR PREVENTION OF FLAVIVIRUS DENGUE/ZIKA INFECTIONS” (Canopus BioPharma Incorporated, priority 2016, published 2017).
Values joined by “and” are separate entries in the source; they are usually repeats but may differ in a detail not shown here. Identical values can stand only once. Like-named read-outs stand apart in the source and are kept apart here.

Columns and labels:
[1] = laboratory animals; cited from earlier work
[2] = cited from earlier work
[3] = cited from earlier work; for mean Cmax concentrations: healthy subjects
[4] = Eplerenone PK and concentrations reported in humans; format: in vivo, human; conditions: for Cmax: human, plasma, po
From the text: Clinical data: Eplerenone PK and concentrations reported in humans:
Referring now to FIG. 5 and FIG. 6, Eplerenone Cmax concentrations achieved in normal subjects is illustrated, as well as subjects with varying degrees of renal impairment after single and multiple doses of Eplerenone given orally.
The charts illustrate the feasibility of achieving anti-viral Cmax concentrations using Eplerenone in human and show Eplerenone plasma concentration vs. time curves.
In multiple dose studies, it is shown that Eplerenone steady state concentrations may be reached within 4 days. […] This preferred embodiment may be adjusted according to the specific conditions of the human subject.

Zika virus = test: ZIKA anti-viral in-vitro testing in VERO cells (Naftol blue-black staining, absorbance at 450 nm); conditions: for Absorbance at 450 nm: Zika MOI 0.1, VERO cells, 72 hours, threshold 0.382, replicate wells
Protocol: ZIKA Anti-Viral In-Vitro Testing and Antiviral Assay Report:
Controls: Medium with DMSO at 1% start concentration; Zika virus for infection at 0.1 MOI; VERO cells on VP medium (serum-free).
Procedure: Antivirals were diluted as information provided to stock concentrations of 10 mM in 100% DMSO.
• 1—VERO cells in VP were inoculated in 200 μL/well at 5.0×10^4 cells/mL in 96-well plates. • 2—Incubated at 37° C. for 48 hours. • 3—With 80% confluence the test was performed as follows: culture medium was changed for 150 μL of fresh VP in columns 2 to 10. Antivirals diluted at 100 μM in VP medium were placed in the column 1 (300 μL). Serial dilutions from 1 to 10 were performed by passing 150 μL of medium (1:2). Plates were incubated at 37° C. for 2 hours. Zika virus diluted in VP medium to the final infection ration desired of MOI 0.1 in 100 μL of VP was added to wells. • 4—Plates were incubated for 72 hours and checked each 24 hours for cytotoxicity or cytopathic effect. • 5—Plates were washed and stained with Naftol blue-black. Absorbance was measured at 450 nm.
DMSO cytotoxicity Antiviral cytotoxicity Primary Threshold for virus inhibition. Absorbance above 0.382

dengue [5] = conditions: cited from earlier work
dengue [6] = conditions: mouse model; cited from earlier work
dengue [7] = conditions: by inhibiting the dengue 2′-O-methyltransferase NS5 domain; cited from earlier work

Row | SMILES | Absorbance at 450 nm (Zika virus; 0.19 μM) | Absorbance at 450 nm (Zika virus; 0.78 μM) | Absorbance at 450 nm (Zika virus; 1.56 μM) | Absorbance at 450 nm (Zika virus; 3.12 μM) | Absorbance at 450 nm (Zika virus; 6.25 μM) | Absorbance at 450 nm (Zika virus; 12.5 μM) | Absorbance at 450 nm (Zika virus; 25 μM) | Absorbance at 450 nm (Zika virus; 50 μM) | other results
1 | COC(=O)[C@@H]1CC2=CC(=O)CC[C@]2(C)[C@@]23O[C@@H]2C[C@@]2(C)[C@@H](CC[C@@]24CCC(=O)O4)[C@H]13 [Eplerenone, pregn-4-ene-7,21-dicarboxylic acid, 9,11-epoxy-17-hydroxy-3-oxo, γ-lactone, methyl ester (7α, 11α, 17α)] | 0.449 and 0.441 and 0.468 and 0.469 | 0.433 and 0.434 and 0.432 and 0.428 | 0.369 and 0.466 and 0.453 and 0.443 | 0.4 and 0.423 and 0.453 and 0.441 | 0.376 and 0.448 and 0.411 and 0.397 | 0.334 and 0.333 and 0.373 and 0.341 | 0.29 and 0.288 and 0.291 and 0.271 | 0.217 and 0.238 and 0.209 and 0.182 | Dose with noticeable risk of foetal abnormalities [1]: over 1000 times the recommended daily dose; Pregnancy category ([2]; animal reproduction studies failed to demonstrate a risk to the fetus): category B; Tolerability ([2]; human): generally well tolerated; mean Cmax concentrations ([3]; dose 100 mg orally): 1720 ng/mL; mean Cmax concentrations ([3]; single dose of 50 mg orally): 1173 ng/mL; Accumulation: steady state Cmax compared with single dose administration ([3]; multiple dose studies): no significant accumulation; Time to reach steady state concentrations ([3]; multiple dose studies): ≤ 4 days; Peak plasma concentrations (Cmax) ([3]; therapeutic doses of oral Eplerenone (100 mg), human): up to 1720 ng/ml; Cmax relative to in-vitro concentration of column#9 ([…]) ([4]; Cmax […] after 100 mg oral vs in-vitro […]): 10 times; Cmax ([4]; 50 mg, healthy subjects, single dose of 50 mg orally, read-out: mean Cmax concentrations, equivalent): 2.8 µM; Cmax ([4]; 100 mg, healthy subjects, dose 100 mg orally, read-out: mean Cmax concentrations, equivalent): 4.1 µM; Cmax ([4]; 100 mg, therapeutic doses of oral Eplerenone (100 mg), read-out: Peak plasma concentrations (Cmax), equivalent): ≤ 4.1 µM; In-vitro concentrations showing anti-viral activity against Zika virus (Zika virus; columns 6-10 of the report, comparable to Butantan control): 0.19 to 3.12 µM
2 | COCCOC(=O)C1=C(C)NC(C)=C(C(=O)OC(C)C)C1c1cccc([N+](=O)[O-])c1 (centres unmarked) [Nimodipine] | 0.206 and 0.321 and 0.378 and 0.354 | 0.142 and 0.293 and 0.459 and 0.396 | 0.202 and 0.387 and 0.46 and 0.397 | 0.235 and 0.468 and 0.451 and 0.415 | 0.263 and 0.363 and 0.451 and 0.395 | 0.276 and 0.282 and 0.347 and 0.305 | 0.21 and 0.224 and 0.271 and 0.217 | 0.091 and 0.113 and 0.117 and 0.092 | –
3 | NC(=O)c1ncn([C@@H]2O[C@H](CO)[C@@H](O)[C@H]2O)n1 [Ribavirin] | – | – | – | – | – | – | – | – | Adverse effects in dengue animal models (dengue [5]; mouse model or rhesus monkey model (species not specified)): induced anemia and thrombocytosis; Protection against dengue (dengue [5]; rhesus monkey model): did not show protection; Protection against dengue (dengue [6]): did not show protection; Activity against dengue in tissue culture (dengue [7]): works against dengue in tissue culture
4 | CC(=O)S[C@@H]1CC2=CC(=O)CC[C@]2(C)[C@H]2CC[C@@]3(C)[C@@H](CC[C@@]34CCC(=O)O4)[C@H]12 [Spironolactone] | 0.22 and 0.2 and 0.183 and 0.095 | 0.328 and 0.23 and 0.168 and 0.063 | 0.328 and 0.318 and 0.2 and 0.069 | 0.359 and 0.317 and 0.223 and 0.06 | 0.358 and 0.307 and 0.263 and 0.097 | 0.338 and 0.342 and 0.234 and 0.092 | 0.255 and 0.257 and 0.214 and 0.076 | 0.079 and 0.082 and 0.074 and 0.047 | –
